Experimental data: article PMC8281026, “Peptide Based Inhibitors of Protein Binding to the Mitogen-Activated Protein Kinase Docking Groove” (Frontiers in Molecular Biosciences, 2021)
Each block holds one compound with its values, some of them ahead of it. *1 amine or outer side, *2 acyl side, *3 side chain or, on linkers, in order; H or OH if unused. Where a SMILES comes first, the peptide text is derived from it. Bridges are numbered along the chain shown (N, C = ends). The star is where a group is joined. Dabcyl = CN(C)c1ccc(N=Nc2ccc(C(=O)*)cc2)cc1; TBMB = c1c(C[*:1])cc(C[*:3])cc1C[*:2]; X1 = O=C(C[*:2])[*:1]

Key:
[1] = molecular target: T1, p38α (Homo sapiens, UniProt Q16539); experiment: Fluorescence polarization competitive binding assay, p38; conditions: competitive FP titration against 50 nM Cf-RHDF (gives Ki, used as proxy of Kd); 20 mM Tris pH 8.0, 100 mM NaCl, 0.05% Brij35, 2 mM TCEP; at least 3 independent measurements; read-out: Kd (µM) ± sd, p38
T1 construct: made in house; host or cells: Escherichia coli
Experimental: (§1) ERK2 and p38 proteins used for fluorescence polarization (FP) measurements were recombinantly expressed in Escherichia coli and purified according to Garai et al. The purified and concentrated proteins were subjected to fluorescence polarization based binding measurements ([Garai et al., 2012]) using 50 nM Cf-labeled Cf-RHDF (Cf-SLQRKKPPWLKLDIPSC) and the data was analyzed using OriginPro. For direct measurements the concentration of ERK2 and p38 protein was increased, and for competitive measurements the protein-labeled peptide complex at 60–80% complex formation was titrated with increasing concentration of unlabeled peptide and the amount of the protein-labeled peptide complex (fraction bound) was determined using Cytation 3 (BioTek Instruments) plate reader in 384-well black plates. The direct measurement gives the Kd between the labeled peptide and the MAPK, while the competitive titration experiment with the unlabeled peptide gives the Ki for the unlabeled peptide competing off the labeled peptide, which is a good proxy for the binding affinity of the unlabeled peptide to the protein. All of the FP measurements were performed in assay buffer: 20 mM Tris (pH 8.0), 100 mM NaCl, 0.05% Brij35, and 2 mM TCEP. Fraction bound of the labeled ligand was calculated based on direct binding and competitive binding equations described in ([Roehrl et al., 2004]; [Simon et al., 2020]). The Kd and Ki values were obtained by fitting the FP data, measured in triplicates, to a direct binding equation or to a competitive binding equation using the OriginPro software.

[2] = molecular target: T2, ERK2 (Homo sapiens, UniProt P28482); experiment: Fluorescence polarization competitive binding assay, ERK2; conditions: for Kd: competitive FP titration against 50 nM Cf-RHDF (gives Ki, used as proxy of Kd), 20 mM Tris pH 8.0, 100 mM NaCl, 0.05% Brij35, 2 mM TCEP, at least 3 independent measurements, read-out: Kd (µM) ± sd, ERK2
T2 construct: made in house; host or cells: Escherichia coli
Experimental: as §1

[3] = molecular target: active ERK2 (pp-ERK2) (Homo sapiens, UniProt P28482); experiment: In vitro MAPK activity assay (Nanobit luciferase protein fragment complementation), ERK2; format: biochemical; conditions: for EC50: 1 nM pp-ERK2, 2 mM ATP, 50 mM HEPES pH 7.5, initial rates, luminescence, at least 3 independent measurements; for EC50 increase relative to peptide 8: ratio of EC50 values, compared with peptide 8
Experimental: (§2) In order to determine the inhibitory effect of RHDF-peptides, we used a protein fragment complementation based assay. […] Upon MAPK activity, these two proteins bind and form the active luciferase enzyme oxidizing its substrate (coelenterazine) and ultimately giving some luminescent signal. The initial rates of the reactions were calculated and were compared for the applied inhibitor’s concentration, and then EC50 values were determined using dose response fitting (OriginPro) (see in Supplementary Figure S26). Reactions were carried out in a buffer of 50 mM HEPES, pH 7.5, 100 mM NaCl, 5 mM MgCl2, 0.05% IGEPAL, 50 μM Coelenterazine h, 5% glycerol, 2 mM DTT, 1mM TCEP, 0.5 mg/ml BSA containing 1 nM active ERK2 (pp-ERK2) or p38 (pp-p38α) and were started by the addition of 2 mM ATP. Luminescence was measured using a luminescence plate reader (Cytation 3, BioTek) in white 96-well plates.

[4] = molecular target: p38 (pp-p38α) (Homo sapiens, UniProt Q16539); experiment: In vitro MAPK activity assay (Nanobit luciferase protein fragment complementation), p38; format: biochemical; conditions: 1 nM pp-p38α, 2 mM ATP, 50 mM HEPES pH 7.5; initial rates, luminescence; at least 3 independent measurements
Experimental: as §2

[5] = tested on: HEK-293T cells; experiment: Cellular uptake by fluorescence microscopy; format: cell-based; conditions: for cellular uptake: data is not shown; for internalization into HEK-293T cells: fluorescence microscopy, serum-free medium, 37 °C, up to 3 h, Figure 1
Experimental: (§3) The cellular uptake of the fluorescent labeled peptide into HEK-293T cells were analyzed by fluorescence microscopy (Cytation 3, BioTek Instruments) and two peptides were further examined by confocal laser scanning microscopy (Zeiss LSM-710 system). Cells were incubated with peptides in serum-free medium (DMEM) for 3 h at 37 °C and then washed twice with 200 μl of serum-free medium before analyzing.

[6] = tested on: HEK-293T cells; experiment: Intracellular distribution by confocal laser scanning microscopy; format: cell-based; conditions: 10 and 20 µM, 3 h
Experimental: as §3

T1 sequence (Q16539 whole entry): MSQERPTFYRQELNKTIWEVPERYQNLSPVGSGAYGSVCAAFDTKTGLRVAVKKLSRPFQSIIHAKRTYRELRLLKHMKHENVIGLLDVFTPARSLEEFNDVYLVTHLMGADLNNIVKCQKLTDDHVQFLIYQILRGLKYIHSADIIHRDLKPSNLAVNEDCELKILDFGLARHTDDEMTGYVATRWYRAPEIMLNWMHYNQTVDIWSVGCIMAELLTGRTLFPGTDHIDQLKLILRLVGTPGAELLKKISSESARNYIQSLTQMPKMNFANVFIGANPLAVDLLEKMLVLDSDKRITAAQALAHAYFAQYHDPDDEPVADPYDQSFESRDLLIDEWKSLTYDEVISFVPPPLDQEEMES
Chain of active ERK2 (pp-ERK2) (P28482 whole entry, the tested form may be a part): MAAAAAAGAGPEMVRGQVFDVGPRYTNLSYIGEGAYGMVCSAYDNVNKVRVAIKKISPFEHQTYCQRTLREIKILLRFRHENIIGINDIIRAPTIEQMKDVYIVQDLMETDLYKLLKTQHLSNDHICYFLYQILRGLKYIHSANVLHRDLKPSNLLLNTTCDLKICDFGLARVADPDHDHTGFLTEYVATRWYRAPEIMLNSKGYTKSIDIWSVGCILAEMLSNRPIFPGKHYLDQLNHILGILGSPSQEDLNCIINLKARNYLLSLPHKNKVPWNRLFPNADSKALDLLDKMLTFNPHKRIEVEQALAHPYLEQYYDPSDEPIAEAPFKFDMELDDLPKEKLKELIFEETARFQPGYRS
T2 sequence (P28482 whole entry, species assumed): as the sequence (P28482 whole entry, the tested form may be a part) above
Chain of p38 (pp-p38α) (Q16539 whole entry, the tested form may be a part): as the sequence (Q16539 whole entry) above

Kd [1]: 2.1 ± 0.6 µM
Kd [2]: 5.1 ± 0.4 µM
Compound: CC(C)C[C@@H]1NC(=O)[C@H](CCCNC(=N)N)NC(=O)[C@H](CC(C)C)NC(=O)[C@H](Cc2c[nH]c3ccccc23)NC(=O)[C@@H]2CCCN2C(=O)[C@@H]2CCCN2C(=O)[C@H](CCCNC(=N)N)NC(=O)[C@H](CCCNC(=N)N)NC(=O)[C@H](CCCNC(=N)N)NC(=O)[C@@H](NC(=O)c2ccc(N=Nc3ccc(N(C)C)cc3)cc2)CCCCNC(=O)CSC[C@@H](C(N)=O)NC(=O)[C@H](CCCNC(=N)N)NC(=O)[C@H](CCCNC(=N)N)NC(=O)[C@H](CC(=O)O)NC1=O [compound 14] (Dabcyl-KRRRPPWLRLDRRC-NH2; linker 1-14 via X1)

Kd [1]: 1.2 ± 0.6 µM
Kd [2]: 1.5 ± 0.3 µM
Compound: CC[C@H](C)[C@@H]1NC(=O)[C@H](CC(=O)O)NC(=O)[C@H](CC(C)C)NC(=O)[C@H](CCCNC(=N)N)NC(=O)[C@H](CC(C)C)NC(=O)[C@H](Cc2c[nH]c3ccccc23)NC(=O)[C@@H]2CCCN2C(=O)[C@@H]2CCCN2C(=O)[C@@H](NC(=O)[C@H](CCCNC(=N)N)NC(=O)[C@H](CCCNC(=N)N)NC(=O)[C@H](CCCNC(=N)N)NC(=O)c2ccc(N=Nc3ccc(N(C)C)cc3)cc2)CCCCNC(=O)CSC[C@@H](C(N)=O)NC(=O)[C@H](CCCNC(=N)N)NC(=O)[C@H](CCCNC(=N)N)NC1=O [compound 15] (Dabcyl-RRRKPPWLRLDIRRC-NH2; linker 4-15 via X1)

Kd [1]: 1.4 ± 0.3 µM
EC50 [3]: 3.5 µM
EC50 [4]: 1.3 µM
Compound: H-RRRPPWLRLDIRR-NH2 [compound 8, H-RRRPPWLRLDIRR-NH 2]

Kd [1]: 1 ± 0.7 µM
Kd [2]: 1 ± 0.2 µM
Compound: CC(C)C[C@@H]1NC(=O)[C@H](CCCNC(=N)N)NC(=O)[C@H](CC(C)C)NC(=O)[C@H](Cc2c[nH]c3ccccc23)NC(=O)[C@@H]2CCCN2C(=O)[C@@H]2CCCN2C(=O)[C@@H](NC(=O)[C@H](CCCNC(=N)N)NC(=O)[C@H](CCCNC(=N)N)NC(=O)[C@H](CCCNC(=N)N)NC(=O)c2ccc(N=Nc3ccc(N(C)C)cc3)cc2)CCCCNC(=O)CSC[C@@H](C(N)=O)NC(=O)[C@H](CCCNC(=N)N)NC(=O)[C@H](CCCNC(=N)N)NC(=O)[C@H](CC(=O)O)NC1=O [compound 13] (Dabcyl-RRRKPPWLRLDRRC-NH2; linker 4-14 via X1)

EC50 increase relative to peptide 8 [3]: 2.4 times
Compound: CC[C@H](C)[C@H](NC(=O)[C@H](CC(=O)O)NC(=O)[C@H](CC(C)C)NC(=O)[C@H](CCCNC(=N)N)NC(=O)[C@H](CC(C)C)NC(=O)[C@H](Cc1c[nH]c2ccccc12)NC(=O)[C@@H]1CCCN1C(=O)[C@@H]1CCCN1C(=O)[C@H](CCCNC(=N)N)NC(=O)[C@H](CCCNC(=N)N)NC(=O)[C@H](CCCNC(=N)N)NC(=O)c1ccc(/N=N/c2ccc(N(C)C)cc2)cc1)C(=O)N[C@@H](CCCNC(=N)N)C(=O)N[C@@H](CCCNC(=N)N)C(=O)N[C@@H](CCCCN)C(N)=O [compound 10, Dabcyl-RRRPPWLRLDIRRK-NH 2]

Kd [1]: 3.2 ± 0.7 µM
Kd [2]: 4.5 ± 0.6 µM
Compound: CC(C)C[C@@H]1NC(=O)[C@H](CCCNC(=N)N)NC(=O)[C@H](CC(C)C)NC(=O)[C@@H]2CSCc3cc(cc(c3)CSC[C@H](NC(=O)[C@H](CCCNC(=N)N)NC(=O)[C@H](CCCNC(=N)N)NC(=O)[C@H](CCCNC(=N)N)NC(=O)c3ccc(N=Nc4ccc(N(C)C)cc4)cc3)C(=O)N3CCC[C@H]3C(=O)N3CCC[C@H]3C(=O)N[C@@H](Cc3c[nH]c4ccccc34)C(=O)N2)CSC[C@@H](C(N)=O)NC(=O)[C@H](CCCNC(=N)N)NC(=O)[C@H](CCCNC(=N)N)NC(=O)[C@H](CC(=O)O)NC1=O [compound 17] (Dabcyl-RRRCPPWCLRLDRRC-NH2; linker 4-8-15 via TBMB)

Compound: H-RRPPWLRLDI-NH2 [compound 5, H-RRPPWLRLDI-NH 2]
cellular uptake [5]: poor

EC50 [3]: 12.9 µM
EC50 increase relative to peptide 8 [3]: 3.7 times
EC50 [4]: 3.7 µM
binding enhancement by extension of the C-terminus by two Arg ([2]; ERK2 Kd, compared with peptide 5): 3.5 times
Compound: H-RRPPWLRLDIRR-NH2 [compound 6, H-RRPPWLRLDIRR-NH 2]

Compound: Cf-RRPPWLRLDIRR-NH 2 [compound 7]
internalization into HEK-293T cells [5]: time and concentration dependent internalization

Compound: CC[C@H](C)[C@H](NC(=O)[C@H](CC(=O)O)NC(=O)[C@H](CC(C)C)NC(=O)[C@H](CCCCN)NC(=O)[C@H](CC(C)C)NC(=O)[C@H](Cc1c[nH]c2ccccc12)NC(=O)[C@@H]1CCCN1C(=O)[C@@H]1CCCN1C(=O)[C@H](CCCCN)NC(=O)[C@H](CCCCN)NC(=O)[C@H](CCCNC(=N)N)NC(=O)[C@H](CCC(N)=O)NC(=O)[C@H](CC(C)C)NC(=O)[C@@H](N)CO)C(=O)N1CCC[C@H]1C(=O)N[C@@H](CO)C(=O)N[C@@H](CS)C(N)=O [compound 1, H-SLQRKKPPWLKLDIPSC-NH 2]
cellular uptake [5]: poor

binding decrease relative to the original peptide ([2]; ERK2 Kd, compared with original peptide 1): 8.3 times
Compound: H-KKPPWLKLDI-NH2 [compound 4, H-KKPPWLKLDI-NH 2]
cellular uptake [5]: poor

Kd [1]: 1.7 ± 0.4 µM
Kd [2]: 4.1 ± 0.3 µM
Compound: CC(C)C[C@@H]1NC(=O)[C@H](CCCNC(=N)N)NC(=O)[C@H](CC(C)C)NC(=O)[C@@H](NC(=O)[C@H](Cc2c[nH]c3ccccc23)NC(=O)[C@@H]2CCCN2C(=O)[C@@H]2CCCN2C(=O)[C@H](CCCNC(=N)N)NC(=O)[C@H](CCCNC(=N)N)NC(=O)[C@H](CCCNC(=N)N)NC(=O)c2ccc(N=Nc3ccc(N(C)C)cc3)cc2)CCCCNC(=O)CSC[C@@H](C(N)=O)NC(=O)[C@H](CCCNC(=N)N)NC(=O)[C@H](CCCNC(=N)N)NC(=O)[C@H](CC(=O)O)NC1=O [compound 12] (Dabcyl-RRRPPWKLRLDRRC-NH2; linker 7-14 via X1)

Kd [1]: 1.4 ± 0.4 µM
Kd [2]: 0.9 ± 0.2 µM
Compound: CC[C@H](C)[C@@H]1NC(=O)[C@H](CC(=O)O)NC(=O)[C@H](CC(C)C)NC(=O)[C@H](CCCNC(=N)N)NC(=O)[C@H](CC(C)C)NC(=O)[C@@H]2CSCc3cc(cc(c3)CSC[C@H](NC(=O)[C@H](CCCNC(=N)N)NC(=O)[C@H](CCCNC(=N)N)NC(=O)[C@H](CCCNC(=N)N)NC(=O)c3ccc(N=Nc4ccc(N(C)C)cc4)cc3)C(=O)N3CCC[C@H]3C(=O)N3CCC[C@H]3C(=O)N[C@@H](Cc3c[nH]c4ccccc34)C(=O)N2)CSC[C@@H](C(N)=O)NC(=O)[C@H](CCCNC(=N)N)NC(=O)[C@H](CCCNC(=N)N)NC1=O [compound 16] (Dabcyl-RRRCPPWCLRLDIRRC-NH2; linker 4-8-16 via TBMB)

Compound: Cf- RRRPPWLRLDIRR-NH 2 [compound 9]
intracellular distribution [6]: punctuated
internalization into HEK-293T cells [5]: time and concentration dependent internalization
